Results from ChEMBL document CHEMBL6109087, “Design and synthesis of azole derivatives of echinocystic acid as α-glucosidase inhibitors with hypoglycemic activity” (Eur J Med Chem, 2025).
Calls of active or inactive are those of the source. The rule behind the calls is not given here.

How the values were obtained:
Alpha-glucosidase [1] = biological target: T1, Alpha-glucosidase (Saccharomyces cerevisiae S288c, UniProt P53341+P38158+P07265); test: Binding affinity to alpha-glucosidase assessed as inhibition constant; assay type: protein assay
[2] = biological target: T2, Alpha-glucosidase (Saccharomyces cerevisiae S288c) (UniProt P53341+P38158+P07265); test: Inhibition of alpha-glucosidase using 4-Nitrophenyl-[…]-D-glucopyranoside (pNPG) as substrate assessed as inhibition rate at 30 uM relative control; assay type: protein assay
Alpha-glucosidase [3] = biological target: T1, Alpha-glucosidase; test: Inhibition of alpha-glucosidase using 4-Nitrophenyl-[…]-D-glucopyranoside (pNPG) as substrate; assay type: protein assay
[4] = Cytotoxicity against human LO2 cells assessed as cell viability measured after 24 hrs by MTT assay; assay type: toxicity, cell-based, L02
[5] = tested on: alpha-glucosidase (unknown origin); test: Selectivity index, ratio of CC50 for Cytotoxicity against human LO2 cells to IC50 for alpha-glucosidase (unknown origin); assay type: toxicity, cell-based, L02; conditions: read-out: Selectivity Index
[6] = biological target: T2, Alpha-glucosidase (Saccharomyces cerevisiae S288c); test: Mixed-type of inhibition at alpha-glucosidase assessed as decrease in Km by Lineweaver-Burk plot analysis; assay type: protein assay
[7] = biological target: T2, Alpha-glucosidase (Saccharomyces cerevisiae S288c); test: Mixed-type of inhibition at alpha-glucosidase assessed as decrease in Vmax by Lineweaver-Burk plot analysis; assay type: protein assay
Alpha-glucosidase [8] = biological target: T1, Alpha-glucosidase; test: Binding affinity to alpha-glucosidase assessed as inhibition constant for protein substrate (alpha-Glu-pNPG) complex; assay type: protein assay
[9] = biological target: T2, Alpha-glucosidase (Saccharomyces cerevisiae S288c); test: Binding affinity to alpha-glucosidase assessed as quenching by measuring decrease in fluorescent intensity at 0 to 8 uM; assay type: protein assay; conditions: dose 0-8 µM
[10] = biological target: T2, Alpha-glucosidase (Saccharomyces cerevisiae S288c); test: Binding affinity to alpha-glucosidase assessed as quenching by measuring decrease in fluorescent intensity by […] fluorescence spectroscopy; assay type: protein assay
[11] = biological target: T2, Alpha-glucosidase (Saccharomyces cerevisiae S288c); test: Binding affinity to alpha-glucosidase assessed as fluorescent intensity (lambda-ex/lambda-em 285/320 nm) by 3D fluorescence spectra; assay type: protein assay
[12] = biological target: T2, Alpha-glucosidase (Saccharomyces cerevisiae S288c); test: Binding affinity to alpha-glucosidase assessed as fluorescent intensity (lambda-ex/lambda-em 276/332 nm) by 3D fluorescence spectra; assay type: protein assay
[13] = Acute toxicity in C57BL/6J mouse assessed as signs of death or toxicity at 0.5 g/Kg single dose monitored over 14 days; conditions: in vivo, 500 mg/kg, 336 h, time 14 day
[14] = Acute toxicity in C57BL/6J mouse assessed as change in serum ALB level at 0.5 g/Kg single dose; conditions: in vivo, 500 mg/kg
[15] = Acute toxicity in C57BL/6J mouse assessed as change in serum AST level at 0.5 g/Kg single dose; conditions: in vivo, 500 mg/kg
[16] = Acute toxicity in C57BL/6J mouse assessed as change in serum ALT level at 0.5 g/Kg single dose; conditions: in vivo, 500 mg/kg
[17] = Acute toxicity in C57BL/6J mouse assessed as change in serum BUN level at 0.5 g/Kg single dose; conditions: in vivo, 500 mg/kg
[18] = Acute toxicity in C57BL/6J mouse assessed as pathological damages in heart at 0.5 g/Kg single dose by HE staining based analysis; assay type: tissue-based; conditions: in vivo, 500 mg/kg
[19] = Acute toxicity in C57BL/6J mouse assessed as pathological damages in liver at 0.5 g/Kg single dose by HE staining based analysis; assay type: tissue-based; conditions: in vivo, 500 mg/kg
[20] = Acute toxicity in C57BL/6J mouse assessed as pathological damages in spleen at 0.5 g/Kg single dose by HE staining based analysis; assay type: tissue-based; conditions: in vivo, 500 mg/kg
[21] = Acute toxicity in C57BL/6J mouse assessed as pathological damages in lung at 0.5 g/Kg single dose by HE staining based analysis; assay type: tissue-based; conditions: in vivo, 500 mg/kg
[22] = Acute toxicity in C57BL/6J mouse assessed as pathological damages in kidney at 0.5 g/Kg single dose by HE staining based analysis; assay type: tissue-based; conditions: in vivo, 500 mg/kg
[23] = Acute toxicity in C57BL/6J mouse assessed as pathological damages in brain at 0.5 g/Kg single dose by HE staining based analysis; assay type: tissue-based; conditions: in vivo, 500 mg/kg
Mus musculus [24] = test: Reduction in blood glucose concentration in male C57BL/6J mouse assessed as peak blood glucose and glucose AUC preadministered for 30 mins via gavage followed by treated 2 g/Kg of sucrose and measured up to 120 mins post sucrose challenge by sucrose loading test; assay type: functional, organism-based; conditions: dose 100.0 mg/kg, time 150.0 min
Mus musculus [25] = test: In vivo hypoglycemic effect in STZ-induced diabetic C57BL/6J mouse model assessed as decrease in fasting blood glucose at 100 mg/kg treated via gavage measured after 7 days by fasting blood glucose test; assay type: functional, organism-based; conditions: time 7.0 day
[26] = Toxicity in STZ-induced diabetic C57BL/6J mouse model assessed as body weight at 100 mg/kg treated via gavage measured after 7 days; assay type: organism-based; conditions: in vivo, po, 168 h, time 7 day
Mus musculus [27] = test: In vivo hypoglycemic effect in STZ-induced diabetic C57BL/6J mouse model assessed as decrease in postprandial blood glucose at 100 mg/kg treated via gavage measured up to 120 mins by Oral glucose tolerance test (OGTT); assay type: functional, organism-based
Mus musculus [28] = test: Reduction in triglycerides (TG) level in STZ-induced diabetic C57BL/6J mouse model treated via gavage by blood biochemistry index test; assay type: functional, organism-based; conditions: dose 25-100 mg/kg
Mus musculus [29] = test: Reduction in total cholesterol (CHO) level in STZ-induced diabetic C57BL/6J mouse model treated via gavage by blood biochemistry index test; assay type: functional, organism-based
Mus musculus [30] = test: Reduction in low density lipoproteins (LDL) level in STZ-induced diabetic C57BL/6J mouse model treated via gavage by blood biochemistry index test; assay type: functional, organism-based
Mus musculus [31] = test: Induction of high density lipoproteins (HDL) level in STZ-induced diabetic C57BL/6J mouse model treated via gavage by blood biochemistry index test; assay type: functional, organism-based
Mus musculus [32] = test: Anti-oxidant effect in level in STZ-induced diabetic C57BL/6J mouse model assessed as […] in malondialdehyde (MDA) level in serum at 100 mg/kg treated via gavage; assay type: functional, organism-based
Mus musculus [33] = test: Anti-oxidant effect in level in STZ-induced diabetic C57BL/6J mouse model assessed as […] in glutathione (GSH) level in serum at 100 mg/kg treated via gavage; assay type: functional, organism-based
Mus musculus [34] = test: Anti-oxidant effect in level in STZ-induced diabetic C57BL/6J mouse model assessed as […] in total superoxide dismutase (T-SOD) level in serum at 100 mg/kg treated via gavage; assay type: functional, organism-based
Mus musculus [35] = test: Anti-oxidant effect in level in STZ-induced diabetic C57BL/6J mouse model assessed as […] in catalase (CAT) level in serum at 100 mg/kg treated via gavage; assay type: functional, organism-based

`CC1(C)CC[C@]2(C(=O)NCc3cn(-c4ccc(Cl)c(Cl)c4)nn3)[C@H](O)C[C@]3(C)C(=CC[C@@H]4[C@@]5(C)CC[C@H](O)C(C)(C)[C@@H]5CC[C@]43C)[C@@H]2C1` showed a Ki (Alpha-glucosidase [1]) of 15.31 µM, an inhibition [2] of 88.1% and an IC50 (Alpha-glucosidase [3]) of 2.72 µM. The CC50 at 24 h [4] was 287 µM, the selectivity ratio [5] was 105 and the inhibition [6] was “Active”. For the same compound, the inhibition [7] was “Active”, the Ki (Alpha-glucosidase [8]) was 10.23 µM and the Activity [9] was “Active”. For the same compound, the Activity [10] was “Active”, the Activity [11] was “Active” and the Activity [12] was “Active”. The Activity [13] was “Non-toxic”, the Activity [14] was “Non-toxic” and the Activity [15] was “Non-toxic”. For the same compound, the Activity [16] was “Non-toxic”, the Activity [17] was “Non-toxic” and the Activity [18] was “Non-toxic”. The Activity [19] was “Non-toxic”, the Activity [20] was “Non-toxic” and the Activity [21] was “Non-toxic”. The Activity [22] was “Non-toxic”, the Activity [23] was “Non-toxic” and the Activity (Mus musculus [24]) was “Dose-dependent-effect; Compound Showed Comparable Effect To Acarbose”. For the same compound, the Activity (Mus musculus [25]) was “Active”, the Activity [26] was “Non-toxic” and the Activity (Mus musculus [27]) was “Active; Evidenced By Compound Showed Lower Auc Compared With Model Group”. For the same compound, the Activity (Mus musculus [28]) was “Dose-dependent-effect”, the Activity (Mus musculus [29]) was “Dose-dependent-effect” and the Activity (Mus musculus [30]) was “Dose-dependent-effect”. For the same compound, the Activity (Mus musculus [31]) was “Dose-dependent-effect”, the Activity (Mus musculus [32]) was “Active” and the Activity (Mus musculus [33]) was “Active”. For the same compound, the Activity (Mus musculus [34]) was “Active” and the Activity (Mus musculus [35]) was “Active”.
